These results are taken from US20140348857A1, “METHODS OF DIAGNOSIS AND TREATMENT OF ENDOPLASMIC RETICULUM (ER) STRESS-RELATED CONDITIONS” (MASSACHUSETTS INSTITUTE OF TECHNOLOGY, priority 2011, published 2014).

The subject of one assay is PERK. The assay is described as follows: PERK and eIF2α phosphorylation immunoblot in HeLa cells. In kind it is cell-based, human. The following applies: control HeLa cells; Brefeldin A 5 μg/ml, Tunicamycin 3 μg/ml. The text has this:
To determine the effects of (ADP-ribosyl)ation on PERK and IRE1α signaling, GFP-PARP-16, GFP-PARP-16^H152Q Y182A, or GFP alone were over-expressed at similar concentrations, and PERK and IRE1α activation examined using two standard assays; (i) detection of PERK phosphorylation at Thr 981 and phosphorylation of its substrate eIF2α at Ser 51 using phospho-specific antibodies, and (ii) monitoring splicing of the IRE1α substrate XBP-1 mRNA.
To determine if PARP-16 is required for PERK or IRE1α activation, we compared activation in PARP-16 knock-downs to controls. […] Since PERK and IRE1α activity result in the time-dependent activation of downstream transcriptional programs regulated by ATF4 and spliced XBP-1, respectively, we analyzed PERK and IRE1α signaling every 4 hours over a 12-hour period in PARP-16 knock-downs and controls treated with Tunicamycin. Components of each pathway were analyzed via immunoblot or RT-qPCR analysis. While IRE1α activation, detected by phosphorylation of IRE1α, occurred 4 hours post-treatment in controls, such phosphorylation was barely detectable in PARP-16 knock-downs at any time (FIG. 7C, left). […]
Immunofluorescence analysis was performed as described in Leung et al., Mol. Cell 42: 489-499, 2011. […] Fluorescence, biochemical protease protection assays and membrane extraction assays were performed as described in Schreiber et al., Nat. […]

The test system of a further assay is ERAD machinery. The assay is described as follows: ERAD activity assay, CD3δ-YFP clearance by cycloheximide chase. In kind it is cell-based, human. To be noted: MG132 10 μM. An excerpt:
While our data strongly point to direct effects of PARP-16 on PERK and IRE1α signaling, compromised ERAD (ER-associated degradation) and/or chaperone capacities of the ER in PARP-16 knock-downs could also affect UPR activation. ERAD activity in PARP-16 knock-downs was examined by measuring clearance of CD3δ-YFP, a model substrate of ERAD machinery. CD3δ-YFP degradation kinetics were similar in PARP-16 knock-downs and controls as assayed by cycloheximide chase. […] The protein-folding capacity of the ER in PARP-16 knock-downs appear to be similar to controls as the protein concentrations of ER chaperones BiP and Calnexin, and disulfide isomerases PDI and ERp57, were similar (FIG. 9C).
ROS was evaluated using a cell permeant […] derivative of fluorescein (CM-H2DCFDA, Invitrogen), following the manufacturer's protocol (Invitrogen). […] The fluorescence intensity of oxidized ROS probe was measured using a microplate reader (Tecan). […] The ratiometric fluorescence at 340 nm/380 nm was measured every 2 min for 20 min, using a microplate reader (Tecan). […] Total RNA was extracted using RNeasy kits and QIAshredder (Qiagen), and cDNA was amplified using Quantitect reverse transcription kit (Qiagen). RT-qPCR was performed with Quantitect SYBR Green PCR kit (Qiagen), using a LightCycler 480 (Roche). mRNA levels were normalized against GAPDH mRNA.

Where a SMILES comes first, the peptide text is derived from it. The star is where a group is joined. Cbz = O=C(OCc1ccccc1)*

Regarding `C[C@H]1CCC/C=C/[C@@H]2C[C@H](O)C[C@H]2[C@H](O)/C=C/C(=O)O1` [Brefeldin A], the “phosphorylation of PERK and eIF2α” value in the assay with PERK is “robust phosphorylation of PERK and eIF2α”.

Take `CC(C)C[C@@H](C=O)NC(=O)[C@H](CC(C)C)NC(=O)[C@H](CC(C)C)NC(=O)OCc1ccccc1` [MG132] (Cbz-Leu-Leu-Leu-aldehyde): the CD3δ-YFP degradation result with ERAD machinery is on record as “rescued degradation”.

For the compound Tunicamycin, the “phosphorylation of PERK and eIF2α” value in the assay with PERK is “robust phosphorylation of PERK and eIF2α”.
